Structures can show the parent of a compound that is named as a salt. Where two headings read alike, the source gives them in different places.
Target: T1, human A3AR (Homo sapiens, UniProt P0DMS8)
T1 construct: expressed in transfected cells
T1 sequence (P0DMS8 1-318): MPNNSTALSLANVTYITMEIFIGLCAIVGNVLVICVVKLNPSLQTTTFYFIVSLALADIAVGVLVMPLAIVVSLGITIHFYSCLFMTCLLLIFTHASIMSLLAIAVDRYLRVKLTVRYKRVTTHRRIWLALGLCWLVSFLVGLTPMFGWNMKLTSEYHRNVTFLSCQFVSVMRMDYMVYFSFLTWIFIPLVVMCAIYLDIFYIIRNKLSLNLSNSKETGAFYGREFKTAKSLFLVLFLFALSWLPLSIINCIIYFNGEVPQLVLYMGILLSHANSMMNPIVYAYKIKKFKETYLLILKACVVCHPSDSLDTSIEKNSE
Assay: LOPAC library primary screen: single concentration (10 μM) inhibition of 25 nM CA200645 binding, PHERAstar FS

[1] = % of control wells (1% DMSO and 25 nM CA200645), compounds at 10 µM, whole live cells expressing the A3AR, mean ± SD, three experiments in duplicate
[2] = compounds tested at 10 µM, % of control wells (1% DMSO and 25 nM CA200645), whole live cells expressing the A3AR, mean ± SD, three experiments in duplicate

Molecule	% 25 nM CA200645 binding [%]	further results
CC(N)(Cc1ccc(O)c(O)c1)C(=O)O (racemic)	86.8 ± 7.1	
CCN(CC)CC#CCOC(=O)C(O)(c1ccccc1)C1CCCCC1 (centres unmarked) [Oxybutynin Chloride]	101.0 ± 12.8	
Ro 90-7501	72.1 ± 6.0	
Cc1cc2c(cc1Cl)N(C(=O)Nc1ccc(Oc3cccnc3C)nc1)CC2.Cl.Cl.O [SB 242084 dihydrochloride hydrate]	49.6± 12.4	
O=c1ccc2c(OCCCCc3ccccc3)c3ccoc3cc2o1 [Psora-4]	66.4 ± 9.2	
Nc1nc(N)c2nc(CNc3ccc(C(=O)N[C@@H](CCC(=O)O)C(=O)O)cc3)cnc2n1 [Aminopterin]	91.1 ± 3.5	
CC[N+](CC)(CC)CCOc1cccc(OCC[N+](CC)(CC)CC)c1OCC[N+](CC)(CC)CC [Gallamine triethiodide]	78.3 ± 38.7	
COc1ccccc1N1CCN(CC(O)COc2cccc3ccccc23)CC1.Cl.Cl (centres unmarked) [Naftopidil dihydrochloride]	98.6 ± 14.2	
CCCCCN(CCCCC)C(=O)C(CCC(=O)O)NC(=O)c1ccc(Cl)c(Cl)c1 (centres unmarked) [Lorglumide sodium]		% 25 nM CA200645 binding [1]: 99.4 ± 5.5%
O=C1c2c(O)cc(O)cc2O[C@H](c2ccc(O)c(O)c2)[C@H]1O (racemic) [(±)-Taxifolin]	111.1 ± 7.5	
CCN(CC)C(=O)c1ccc(O)c(OC)c1 [Vanillic acid diethylamide]	101.7 ± 2.4	
COCC(=O)O[C@]1(CCN(C)CCCc2nc3ccccc3[nH]2)CCc2cc(F)ccc2[C@@H]1C(C)C [Mibefradil dihydrochloride]	107.6 ± 26.6	
Fc1cccc(/C=N/N=C/c2cccc(F)c2)c1 [DFB]	94.8 ± 1.4	
CCN(CC)CCCC(C)Nc1c2ccc(Cl)cc2nc2ccc(OC)cc12 (centres unmarked) [Quinacrine dihydrochloride]	98.2 ± 4.9	
CCC(C)N(C)C(=O)c1cc2ccccc2c(-c2ccccc2Cl)n1 (centres unmarked) [PK 11195]	93.2 ± 6.1	
Cn1ccc2cc3c(cc21)CCN3C(=O)Nc1cccnc1 [SB 206553 hydrochloride]	60.7 ± 9.3	
C#C[C@]1(O)CC[C@H]2[C@@H]3CCC4=Cc5nc6nc7ccccc7n6cc5C[C@]4(C)[C@H]3CC[C@@]21C [WIN 62,577]	67.3 ± 5.6	
Br.COc1ccc2c(c1)[C@]13CCCC[C@@H]1[C@H](C2)N(C)CC3.O	102.0 ± 12.4	
Cc1nc(N=Nc2ccc(S(=O)(=O)O)cc2S(=O)(=O)O)c(COP(=O)(O)O)c(C=O)c1O [PPADS]	106.1 ± 11.3	
S=c1[nH]c(-c2ccccc2)cn1-c1ccccc1 [KRM-III]	70.4 ± 12.2	
COC(=O)[C@H](NC(=O)c1cc(-c2ccccc2)nc2ccccc12)c1ccccc1 [SB 218795]	51.1 ± 8.4	
CCCC(CCC)C(=O)O[C@H]1C[C@H]2CC[C@@H](C1)[N+]2(C)C [Anisotropine methyl bromide]	97.1 ± 12.3	

Molecule	% 25 nM CA200645 binding [%]	further results
CC[C@]1(O)C[C@@H]2CN(CCc3c([nH]c4ccccc34)[C@@](C(=O)OC)(c3cc4c(cc3OC)N(C)[C@H]3[C@@](O)(C(=O)OC)[C@H](OC(C)=O)[C@]5(CC)C=CCN6CC[C@]43[C@@H]65)C2)C1.O=S(=O)(O)O [Vinblastine sulfate salt]	98.2 ± 16.0	
N#CC(C#N)=Cc1ccc(O)c(O)c1 [Tyrphostin 23]		% 25 nM CA200645 binding [1]: 84.9 ± 6.4%
O=C1NCN(c2ccccc2)C12CCN(CC1COc3ccccc3O1)CC2 (centres unmarked) [Spiroxatrine]		% 25 nM CA200645 binding [2]: 112.7 ± 3.0%
CS(=O)(=O)c1ccc(-n2nc(C(F)(F)F)cc2-c2ccc(F)cc2)cc1 [SC-58125]		% 25 nM CA200645 binding (% of control wells (1% DMSO and 25 nM CA200645), compounds at 10 µM, whole live cells expressing A3AR, mean ± SD, three experiments in duplicate): 96.5 ± 13.6%
NN=C(N)N.NN=C(N)N.O=S(=O)(O)O [Aminoguanidine hemisulfate]	99.2 ± 8.4	
O=c1oc(Cl)c(Cl)c2ccccc12 [3,4-Dichloroisocoumarin]	95.8 ± 9.3	
C[N+](C)(C)CC=O [Betaine aldehyde chloride]	95.0 ± 5.8	
N[C@@H]1[C@H]2CN(c3nc4c(cc3F)c(=O)c(C(=O)O)cn4-c3ccc(F)cc3F)C[C@@H]12 [Trovafloxacin mesylate]	94.4 ± 17.2	
OC[C@H]1O[C@@H](n2cnc3c(NC4CCCC4)ncnc32)[C@H](O)[C@@H]1O [N6-Cyclopentyladenosine]	69.6 ± 6.1	
CNCC[C@@H](Oc1ccccc1C)c1ccccc1 [Tomoxetine]	97.5 ± 8.3	
CC(C)N(CCC(C(N)=O)(c1ccccc1)c1ccccn1)C(C)C (centres unmarked) [Disopyramide phosphate]	98.5 ± 7.6	
C[C@@H]1O[C@H](C[N+](C)(C)C)C[C@H]1O.[Cl-] (racemic) [(±)-Muscarine chloride]	94.8 ± 15.8	
C=CCN1CC[C@]23c4c5ccc(O)c4O[C@H]2C(=O)CC[C@@]3(O)[C@H]1C5 [Naloxone hydrochloride]	114.3 ± 14.2	
CC(C)c1c(C(=O)Nc2ccccc2)c(-c2ccccc2)c(-c2ccc(F)cc2)n1CC[C@@H](O)C[C@@H](O)CC(=O)O [Atorvastatin calcium salt trihydrate]	97.7 ± 2.2	
COc1ccc(/C=C2\COc3ccc(C)cc3C2=O)cc1O [IMS2186]	95.7 ± 10.2	
COc1cc2nc(N3CCN(C(=O)c4ccco4)CC3)nc(N)c2cc1OC [Prazosin hydrochloride]	109.3 ± 23.7	
CNCCCC12CCC(c3ccccc31)c1ccccc12 [Maprotiline hydrochloride]	93.0 ± 35.9	
CC(C)COC(=O)OCN1C(=O)CN(CCN2CC(=O)N(COC(=O)OCC(C)C)C(=O)C2)CC1=O [Sobuzoxane]	111.5 ± 7.6	
C=CCN1CC[C@]23CCCC[C@H]2[C@H]1Cc1ccc(O)cc13 [Levallorphan tartrate]	105.9 ± 7.3	
CC(C)(C)c1onc(OCP(=O)(O)O)c1CC(N)C(=O)O (centres unmarked) [ATPO]	98.4 ± 3.3	
Nc1nc(N)c2nc(-c3ccccc3)c(N)nc2n1 [Triamterene]	95.3 ± 10.4	
Cl.Cl.Oc1ccc2c3c1O[C@H]1c4[nH]c5c(c4C[C@@]4(O)[C@@H](C2)N(CC2CC2)CC[C@]314)C[C@@]1(O)[C@H]2Cc3ccc(O)c4c3[C@@]1(CCN2CC1CC1)[C@H]5O4 [nor-Binaltorphimine dihydrochloride]	96.9 ± 14.7	

Molecule	% 25 nM CA200645 binding [%]	further results
CCNc1nc2c(ncn2[C@H]2C[C@H](O)[C@@H](CO)O2)c(=O)[nH]1 [N2-Ethyl-2'-deoxyguanosine]	108.7 ± 6.3	
CCc1c(C)[nH]c2c1C(=O)C(CN1CCOCC1)CC2 (centres unmarked) [Molindone hydrochloride]	91.2 ± 7.2	
Ro 8-4304	107.2 ± 11.5	
N.N.N.Nc1ncnc2c1ncn2C1OC(COP(=O)(O)OP(=O)(O)OP(=O)(O)OP(=O)(O)OC[C@H]2O[C@@H](n3cnc4c(N)ncnc43)C(O)C2O)[C@@H](O)C1O (stereo in doubt)	101.2 ± 10.2	
O=C(N[C@H]1CN2CCC1CC2)c1ccc(Cl)cc1 [PNU-282987]	78.9 ± 33.0	
N#Cc1cc([N+](=O)[O-])c2sc(C(N)=O)[n+]([O-])c2c1 [BTO-1]	99.9 ± 23.7	
Cn1cc(C2=C(c3ccc(Cl)cc3Cl)C(=O)NC2=O)c2ccccc21 [SB 216763]	94.5 ± 10.2	
CC[C@@]1(O)C(=O)OCc2c1cc1n(c2=O)Cc2cc3c(CN(C)C)c(O)ccc3nc2-1.Cl.O [Topotecan hydrochloride hydrate]	102.0 ± 7.8	
c1ccc2cc(-c3ncc[nH]3)ccc2c1 [Benazoline oxalate]	98.8 ± 14.3	
Cl.NCCCCC(=O)O [5-Aminovaleric acid hydrochloride]	97.9 ± 5.1	
NC/C=C/C(=O)O [(E)-4-amino-2-butenoic acid]	101.5 ± 12.6	
CC(C)(C(=O)O)c1ccc(C(O)CCCN2CCC(C(O)(c3ccccc3)c3ccccc3)CC2)cc1 (centres unmarked) [Fexofenadine hydrochloride]	93.9 ± 3.6	
Oc1ccc(-c2nc(-c3ccncc3)c(-c3ccc(F)cc3)[nH]2)cc1 [SB 202190]	68.5 ± 12.1	
CC[C@H](NC(=O)c1c(C)c(-c2ccccc2)nc2ccccc12)c1ccccc1 [SB 222200]	76.8 ± 5.5	
CN1CCN(C2=Nc3ccccc3Oc3ccc(Cl)cc32)CC1 [Loxapine succinate]	80.2 ± 12.7	
CC[C@H](C)C(=O)O[C@H]1CCC=C2C=C[C@H](C)[C@H](CC[C@@H]3C[C@@H](O)CC(=O)O3)[C@H]21 [Mevastatin]		% 25 nM CA200645 binding [2]: 107.1 ± 10.0%
C[N+](C)(C)CCOP(=O)([O-])OP(=O)([O-])OC[C@H]1O[C@@H](n2ccc(N)nc2=O)[C@H](O)[C@@H]1O.[Na+]	102.5 ± 15.7	
C[C@H]1C[C@H]2[C@@H]3CCC4=CC(=O)C=C[C@]4(C)[C@@]3(F)[C@@H](O)C[C@]2(C)[C@@]1(O)C(=O)CO [Betamethasone]	77.0 ± 7.6	
Cc1ccc(S(=O)(=O)/C=C/C#N)cc1 [Bay 11-7082]	104.6 ± 21.3	
Cl.NCC(O)c1ccc(O)cc1 (racemic) [(±)-Octopamine hydrochloride]	103.0 ± 1.6	
O=C1NC(=O)[C@@]2(CCOc3ccc(F)cc32)N1 [Sorbinil]		% 25 nM CA200645 binding [2]: 96.4 ± 14.0%
